Consider 12 compounds from patent US20240417387A1, “SULFONYLPIPERAZINYL COMPOUNDS FOR TREATMENT OF BACTERIAL INFECTIONS” (Hoffmann-La Roche Inc., priority 2021, published 2024).

As a reminder, the MIC is the lowest concentration found to suppress growth. Usually IC50 stands for the point on the concentration scale where inhibition reaches its midpoint.

The subject of data set [1] is Escherichia coli ATCC 25922. The experiment in a line: Minimal Inhibitory Concentration (MIC) broth dilution assay, E. coli ATCC 25922. The data set is classed as cell-based. As to conditions: for MIC: Escherichia coli. The method, then: (§1) The antibacterial activity of molecules was evaluated against the commonly used quality control strain Escherichia coli BW 25113, Escherichia coli ATCC 25922 and the rifampin-resistant mutant strain Klebsiella pneumonia ATCC 43816. Escherichia co/i BW 25113 was obtained from the Coli Genetic Stock Center (CGSC) (strain 7636). Both Escherichia coli ATCC 25922 and Klebsiella pneumonia ATCC 43816 were originally derived from human clinical samples and are available from ATCC (American Type Culture Collection). The in vitro potency of compounds to inhibit Escherichia coli (BW 25113, ATCC 25922) and Klebsiella pneumonia (ATCC 43816) growth was assessed by the MIC (Minimal Inhibitory Concentration) broth dilution method. Specifically compound dilutions were prepared from 10 mM DMSO stock solutions as follows: i) serial 2-fold dilution in 20 μL DMSO were prepared in a master plate (Greiner, Cat No: 651201), ii) 180 μL sterile distilled water was added to each aliquot and iii) 10 μL diluted compounds were transferred into a new assay plate (Costar, 3599).
(§2) Vials of each test microorganisms were maintained frozen in the vapor phase of a liquid nitrogen freezer. Single-use frozen vials of the three strains Escherichia coli BW 25113, Escherichia coli ATCC 25922 (KWTKSTTK, 0335K) and Klebsiella pneumonia ATCC 43816, with predetermined CFU/mL, were taken out from the freezer, thawed at room temperature, and diluted in Cation-Adjusted Mueller Hinton Broth (CAMVIHB) to achieve a final inoculum of 5×10^5 CFU/mL. 90 μL bacteria containing broth was dispensed to the assay plate containing the pre-dispensed compound dilutions and mixed by pipetting 5 times.
(§3) Then the assay plates were incubated for 20 hours at 35° C. in ambient air. Following incubation, the MIC […], the lowest concentration of drug that inhibits visible growth of the microorganism was read with the help of a magnification mirror and recorded.
For orientation: In broth dilution the organism is exposed to a series of concentrations in liquid medium.

For data set [2], the target named is Escherichia coli UDP-2,3-diacylglucosamine hydrolase (LpxH) (Escherichia coli (strain K12), UniProt P43341). Kind of data set: Enzymatic IC50 assay of Escherichia coli LpxH (UMP/CMP-Glo luminescence). Type of data set: biochemical. The conditions noted are these: Enzymatic IC50 against Escherichia coli LpxH; read-out: IC50 (converted). The method, then:
The inhibitory potency of compounds of Escherichia coli UDP-2,3-diacylglucosamine hydrolase (LpxH) was determined in an enzymatic assay. UDP-2,3-diacylglucosamine (UDP-DAG) was purified from the Caulobacter crescentus LpxI D225A mutant protein that contained a tightly bound UDP-DAG molecule. The enzyme was diluted using assay buffer containing 50 mM NaCl, 20 mM Tris-HCl pH7.5, 2.5 mM MnCl2, 0.01% Triton X-100.1 mg/mL BSA, and the final concentration is 2 nM. The compounds were diluted by Agilent liquid handler Bravo, the compound's serial dilution dose ranges from 100 μM to 1.7 nM. Then the enzyme and compounds mixture were incubated at room temperature for 10 mins. The enzymatic assay was started by adding UDP-DAG (FAC is 5 μM) and incubated for 20 mins at room temperature. The plate was then heated to 95° C. for 15 mins on a water batch to stop the reaction. The hydrolysis of UDP-DAG by LpxH yielded 2,3-diacylglucosamine 1-phosphate (lipid X) and UMP, which was converted to ATP and quantified by the luciferase reaction using the UMP/CMP-Glo™ Glycosyltransferase Assay kit from Promega. The compound's inhibitory effect of LpxH is determined by measuring the light change using a luminometer (Envision).

Data set [3] relates to Escherichia coli BW 25113. Kind of data set: Minimal Inhibitory Concentration (MIC) broth dilution assay, E. coli BW 25113. The data set is classed as cell-based. As to conditions: CAMHB; for MIC: Escherichia coli, BW25113, 20 hours at 35° C., read-out: MIC E. coli K-12 BW 25113. On the procedure: as §1, §2, §3
The test system of data set [4] is Klebsiella pneumonia ATCC 43816. The experiment in a line: Minimal Inhibitory Concentration (MIC) broth dilution assay, K. pneumonia ATCC 43816. The data set is classed as cell-based. As to conditions: CAMHB; for MIC: Klebsiella pneumoniae, ATCC43816, 20 hours at 35° C., read-out: MIC K. p ATCC 43816. The method, then:
as §1, §2, §3

Data set [5] can be described thus: Human microsome stability assay. The data set is classed as in vitro ADME. On the procedure: The human microsomal stability assay is used for early assessment of metabolic stability of a test compound in human liver microsomes.
Human liver microsomes (Cat.NO.: 452117, Corning, USA) were preincubated with test compound for 10 minutes at 37° C. in 100 mM potassium phosphate buffer, pH 7.4. The reactions were initiated by adding NADPH regenerating system. The final incubation mixtures contained 1 µM test compound, 0.5 mg/mL liver microsomal protein, 1 mM MgCl2, 1 mM NADP, 1 unit/mL isocitric dehydrogenase and 6 mM isocitric acid in 100 mM potassium phosphate buffer, pH 7.4. After incubation times of 0, 3, 6, 9, 15 and 30 minutes at 37° C., 300 μL of cold acetonitrile (including internal standard) was added to 100 μL incubation mixture to terminate the reaction. Following precipitation and centrifugation, the amount of compound remaining in the samples were determined by LC-MS/MS. Controls of no NADPH regenerating system at zero and 30 minutes were also prepared and analyzed. […] (Human microsome clearance: <7 mL/min/kg: low; 7-16.2 mL/min/kg: medium; >16.2 mL/min/kg: high)

[6] abbreviates: ATCC25922, 20 h, read-out: MIC E. coli ATCC 25922.
Setting [7] is: ATCC25922, read-out: MIC E. coli ATCC 25922, broth dilution, 20 hours at 35° C., CAMHB, read-out: MIC E. coli K-12 ATCC 25922.
The mark [8] stands for this setting: human liver microsomes 0.5 mg/mL, 37° C., pH 7.4, NADPH regenerating system.

In brackets after ≈: the same amount, converted by molar mass. Where two headings read alike, the source gives them in different places.

Sequence of Escherichia coli UDP-2,3-diacylglucosamine hydrolase (LpxH) (P43341 whole entry): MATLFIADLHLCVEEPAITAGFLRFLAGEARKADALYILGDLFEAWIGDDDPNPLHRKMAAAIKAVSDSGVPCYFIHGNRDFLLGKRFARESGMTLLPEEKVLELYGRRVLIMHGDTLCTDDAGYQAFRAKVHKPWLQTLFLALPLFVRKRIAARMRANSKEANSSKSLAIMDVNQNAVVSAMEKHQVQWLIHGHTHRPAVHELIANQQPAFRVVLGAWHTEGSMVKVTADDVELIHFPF

Turning to `COC(=O)[C@H]1CC[C@H](C(F)(F)c2cc(Cl)nc(N3CCN(S(=O)(=O)c4ccc(N5CC(N)CC5=O)cc4)CC3)c2)CC1` (stereo partly drawn) [Example 001, Trans-methyl 4-[[2-[4-[4-(4-amino-2-oxo-pyrrolidin-1-yl)phenyl]sulfonylpiperazin-1-yl]-6-chloro-4-pyridyl]-difluoro-methyl]cyclohexanecarboxylate], the MIC in data set [1] (setting [6]) is 0.98 µg/mL (≈ 1.57 µM); in data set [3], 0.49 µg/mL (≈ 0.783 µM); in data set [4], 0.98 µg/mL (≈ 1.57 µM). Further, the IC50 in data set [2] was 3.19 nM.

Take `N[C@@H]1CC(=O)N(c2ccc(S(=O)(=O)N3CCN(c4cc(C(F)(F)c5cnc(C(=O)NCCN6CCOCC6)cn5)cc(Cl)n4)CC3)cc2)C1` [Example 025, 5-[[2-chloro-6-[4-[4-[(4R)-4-amino-2-oxo-pyrrolidin-1-yl]phenyl]sulfonylpiperazin-1-yl]-4-pyridyl]-difluoro-methyl]-N-(2-morpholinoethyl)pyrazine-2-carboxamide]: the IC50 in data set [2] is under 2.78 nM.

Take `NCCNCCNC(=O)c1ccc(C(F)(F)c2cc(Cl)nc(N3CCN(S(=O)(=O)c4ccc(N5C[C@H](N)CC5=O)cc4)CC3)c2)nc1` [Example 028, N-[2-(2-aminoethylamino)ethyl]-6-[[2-chloro-6-[4-[4-[(4R)-4-amino-2-oxo-pyrrolidin-1-yl]phenyl]sulfonylpiperazin-1-yl]-4-pyridyl]-difluoro-methyl]pyridine-3-carboxamide]: the MIC in data set [1] (setting [7]), in data set [3] and in data set [4] was 1.6 µg/mL (≈ 2.31 µM) throughout. Moreover, the IC50 in data set [2] is 20.2 nM.

In the case of `N[C@@H]1CC(=O)N(c2ccc(S(=O)(=O)N3CCN(c4cc(C(F)(F)[C@H]5CC[C@@H](C(=O)NCCCO)CC5)cc(Cl)n4)CC3)cc2)C1` [Example 032], the values for the MIC in data set [1] (setting [6]), in data set [3] and in data set [4] were 2.2 µg/mL (≈ 3.29 µM), 3.3 µg/mL (≈ 4.93 µM) and 2.2 µg/mL (≈ 3.29 µM), respectively. The 50% inhibitory concentration (IC50) in data set [2] is under 2.99 nM.

With `NCC(=O)NNC(=O)[C@H]1CC[C@H](C(F)(F)c2cc(Cl)nc(N3CCN(S(=O)(=O)c4ccc(N5C[C@H](N)CC5=O)cc4)CC3)c2)CC1` [Example 050, Trans-N′-(2-aminoacetyl)-4-[[2-chloro-6-[4-[4-[(4R)-4-amino-2-oxo-pyrrolidin-1-yl]phenyl]sulfonylpiperazin-1-yl]-4-pyridyl]-difluoro-methyl]cyclohexanecarbohydrazide], the MIC in data set [1] (setting [7]) came out at 1.1 µg/mL (≈ 1.61 µM); in data set [3], 2.1 µg/mL (≈ 3.07 µM); in data set [4], 1.1 µg/mL (≈ 1.61 µM). Moreover, the IC50 in data set [2] is 2.93 nM.

As to `Cc1cc(C(F)(F)[C@H]2CC[C@H](C(=O)NCCCN)CC2)nc(N2CCN(S(=O)(=O)c3ccc(N4C[C@H](N)CC4=O)cc3)CC2)n1` [Example 054, Trans-N-(3-aminopropyl)-4-[difluoro-[6-methyl-2-[4-[4-[(4R)-4-amino-2-oxo-pyrrolidin-1-yl]phenyl]sulfonylpiperazin-1-yl]pyrimidin-4-yl]methyl]cyclohexanecarboxamide], the IC50 in data set [2] was 37 nM.

Consider `NC(=O)CNC(=O)[C@H]1CC[C@@H](C(F)(F)c2cc(Cl)nc(N3CCN(S(=O)(=O)c4ccc(N5C[C@H](N)CC5=O)cc4)CC3)c2)CC1` [Example 063, Cis-N-(2-amino-2-oxo-ethyl)-4-[[2-chloro-6-[4-[4-[(4R)-4-amino-2-oxo-pyrrolidin-1-yl]phenyl]sulfonylpiperazin-1-y1]-4-pyridyl]-difluoro-methyl]cyclohexanecarboxamide], for which, in data set [2], the concentration for half-maximal inhibition (IC50) was 5.99 nM.

On to `NCC(N)CNC(=O)[C@H]1CC[C@H](C(F)(F)c2cc(Cl)nc(N3CCN(S(=O)(=O)c4ccc(N5C[C@H](N)CC5=O)cc4)CC3)c2)CC1` (stereo partly drawn) [Example 077, Trans-4-[[2-chloro-6-[4-[4-[(4R)-4-amino-2-oxo-pyrrolidin-1-yl]phenyl]sulfonylpiperazin-1-yl]-4-pyridyl]-difluoro-methyl]-N-(2,3-diaminopropyl)cyclohexanecarboxamide], for which the MIC in data set [1] (setting [7]), in data set [3] and in data set [4] was 2.2 µg/mL (≈ 3.22 µM) each time. Moreover, the IC50 in data set [2] was 2.93 nM.

With `NCC(=O)N[C@H]1CC[C@@H](NC(=O)[C@H]2CC[C@H](C(F)(F)c3cc(Cl)nc(N4CCN(S(=O)(=O)c5ccc(N6C[C@H](N)CC6=O)cc5)CC4)c3)CC2)C1` [Example 079, Trans-N-[(1R,3S)-3-[(2-aminoacetyl)amino]cyclopentyl]-4-[[2-[4-[4-[(4R)-4-amino-2-oxo-pyrrolidin-1-yl]phenyl]sulfonylpiperazin-1-yl]-6-chloro-4-pyridyl]-difluoro-methyl]cyclohexanecarboxamide], the figures for the MIC in data set [1] (setting [6]), in data set [3] and in data set [4] were 3.4 µg/mL (≈ 4.53 µM), 3.4 µg/mL (≈ 4.53 µM) and 0.85 µg/mL (≈ 1.13 µM), respectively. The “Clearance of Human microsome” value in data set [5] (setting [8]) is listed as 11.16 mL/min/kg.

For `N[C@@H]1CC(=O)N(c2ccc(S(=O)(=O)N3CCN(c4cc(C(F)(F)[C@H]5CC[C@H](C(=O)N[C@H]6CCC(N7C[C@H](N)C[C@H](N)C7)C6)CC5)cc(Cl)n4)CC3)cc2)C1` (stereo partly drawn) [Example 081, Trans-4-[[2-chloro-6-[4-[4-[(4R)-4-amino-2-oxo-pyrrolidin-1-yl]phenyl]sulfonylpiperazin-1-yl]-4-pyridyl]-difluoro-methyl]-N-[(1S)-3-[cis-3,5-diamino-1-piperidyl]cyclopentyl]cyclohexanecarboxamide], the MIC in data set [1] (setting [6]), in data set [3] and in data set [4] was 0.65 µg/mL (≈ 0.82 µM) each time. Also, the “Clearance of Human microsome” value in data set [5] (setting [8]) is on record as 6.71 mL/min/kg.

Turning to `C[N+](C)(CCCN)CCCNC(=O)[C@H]1CC[C@H](C(F)(F)c2cc(Cl)nc(N3CCN(S(=O)(=O)c4ccc(N5C[C@H](N)CC5=O)cc4)CC3)c2)CC1` [Example 084, Trans-3-[[4-[[2-[4-[4-[(4R)-4-amino-2-oxo-pyrrolidin-1-yl]phenyl]sulfonylpiperazin-1-yl]-6-chloro-4-pyridyl]-difluoro-methyl]cyclohexanecarbonyl]amino]propyl-(3-aminopropyl)-dimethyl-ammonium], the MIC in data set [1] (setting [6]) is 0.48 µg/mL; in data set [3] it was 0.48 µg/mL; in data set [4] it was 0.81 µg/mL. Further, the “Clearance of Human microsome” value in data set [5] (setting [8]) was 9.7 mL/min/kg.

On to “Trans-N-[(1R,3S)-3-aminocyclopentyl]-4-[2-[4-[4-[(4R)-4-amino-2-oxo-pyrrolidin-1-yl]phenyl]sulfonylpiperazin-1-yl]-6-chloro-4-pyridyl]-difluoro-methyl]cyclohexanecarboxamide [Example 066]”, for which, in data set [1] (broth dilution, 20 hours at 35° C., CAMHB), the “MIC E. coli K-12 ATCC 25922” value was found to be 0.63 µg/mL. Moreover, the “MIC E. coli K-12 BW 25113” value in data set [3] (20 hours at 35° C.) is 1.3 µg/mL. The “Clearance of Human microsome” value in data set [5] (human, microsomes, pH 7.4) came to 6.15 mL/min/kg. The “MIC K. p ATCC 43816” value in data set [4] (20 hours at 35° C.) was determined as 0.59 µg/mL.
